Measured values published in patent US20060069132A1, “Azolecarboxamide herbicides” (priority 2004, published 2006).

Tests used:
morningglory [1] = test: Test A pre-/postemergence herbicide test; assay type: in vivo, Ipomoea spp.
How it was run: (§1)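 Sandy loam soil given preemergence directed spray; plants at 2 to 10 cm, one- to two-leaf stage, sprayed to runoff postemergence, compounds in non-phytotoxic solvent with surfactant. Injury rated visually versus untreated controls after about ten greenhouse days, 0 (no effect) to 100 (complete control); dash means not tested.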

barnyardgrass [2] = test: Test B flooded paddy test; assay type: in vivo, Echinochloa crus-galli; conditions: 1000 g ai/ha, visual rating, scale 0 to 100 (0 no effect, 100 complete control), 13 to 15 days
How it was run: (§2)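 Read-out: visual comparison with controls, scored 0 to 100, where 100 means complete control and 0 no effect. Formulated chemicals were applied postemergence to plants 2–18 cm tall (1- to 4-leaf), or to flooded-paddy plants at the 2-leaf stage, then held 13 to 15 days under glass.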

lambsquarters = test: Test B pre-/postemergence herbicide test; assay type: in vivo, Chenopodium album; conditions: for Plant response rating, Lambsquarters: preemergence; for Lambsquarters plant response rating: postemergence, visual rating, scale 0 (no effect) to 100 (complete control)
How it was run: (§3)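 Herbicidal effect was judged by eye on a 0–100 scale after plants stood 13 to 15 days in the greenhouse following pre- or postemergence treatment with surfactant-containing formulations.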

cocklebur = test: Test B pre-/postemergence herbicide test; assay type: in vivo, Xanthium strumarium; conditions: for Plant response rating, Cocklebur: preemergence; for Cocklebur plant response rating: postemergence, visual rating, scale 0 (no effect) to 100 (complete control)
How it was run: (§4)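 Pre: seeds sown, then sprayed. Post: 1–4-leaf plants (2–18 cm) sprayed at the same time. Paddy: flooded, treated at 2-leaf stage. Formulation: non-phytotoxic solvent with surfactant. Greenhouse 13–15 days; visual 0–100 score relative to controls.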

corn = test: Test B pre-/postemergence herbicide test; assay type: in vivo, Zea mays; conditions: for Plant response rating, Corn: preemergence; for Corn plant response rating: postemergence, visual rating, scale 0 (no effect) to 100 (complete control)
How it was run: as §3

wheat = test: Test B postemergence herbicide test; assay type: in vivo, Triticum aestivum; design: key to Wheat plant response rating: 0 = no effect, 100 = complete control; conditions: postemergence, 500 g ai/ha; visual rating, scale 0 (no effect) to 100 (complete control)
How it was run: (§5)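 Greenhouse test; postemergence application to plants at 1–4 leaves (2–18 cm); paddy species at 2 leaves; evaluated visually vs controls at 13–15 days; scale 0–100 (100 = complete control).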

velvetleaf [3] = test: Test A pre-/postemergence herbicide test; assay type: in vivo, Abutilon theophrasti
How it was run: as §1

barnyardgrass [4] = test: Test A pre-/postemergence herbicide test; assay type: in vivo, Echinochloa crus-galli
How it was run: as §1

morningglory [5] = test: Test B pre-/postemergence herbicide test; assay type: in vivo, Ipomoea coccinea; conditions: for Plant response rating, Morningglory: preemergence; for Morningglory plant response rating: postemergence, visual rating, scale 0 (no effect) to 100 (complete control)
How it was run: as §4

velvetleaf [6] = test: Test B pre-/postemergence herbicide test; assay type: in vivo, Abutilon theophrasti; conditions: for Plant response rating, Velvetleaf: preemergence; for Velvetleaf plant response rating: postemergence, visual rating, scale 0 (no effect) to 100 (complete control)
How it was run: as §3

giant foxtail [7] = test: Test A pre-/postemergence herbicide test; assay type: in vivo, Setaria faberi
How it was run: as §1

ducksalad = test: Test B flooded paddy test; assay type: in vivo, Heteranthera limosa; conditions: 1000 g ai/ha, visual rating, scale 0 to 100 (0 no effect, 100 complete control), 13 to 15 days
How it was run: as §2

giant foxtail [8] = test: Test B pre-/postemergence herbicide test; assay type: in vivo, Setaria faberi; conditions: for Plant response rating, Foxtail, Giant: preemergence; for Foxtail, Giant plant response rating: postemergence, visual rating, scale 0 (no effect) to 100 (complete control)
How it was run: as §3

barnyardgrass [9] = test: Test B pre-/postemergence herbicide test; assay type: in vivo, Echinochloa crus-galli; conditions: for Plant response rating, Barnyardgrass: preemergence; for Barnyardgrass plant response rating: postemergence, visual rating, scale 0 (no effect) to 100 (complete control)
How it was run: as §4

rice [10] = test: Test B pre-/postemergence herbicide test; assay type: in vivo, Oryza sativa; conditions: preemergence
How it was run: as §3

[11] = tested on: small flower umbrella sedge; test: Test B flooded paddy test; assay type: in vivo, Cyperus difformis; conditions: 1000 g ai/ha, visual rating, scale 0 to 100 (0 no effect, 100 complete control), 13 to 15 days
How it was run: as §2

pigweed = test: Test B pre-/postemergence herbicide test; assay type: in vivo, Amaranthus retroflexus; conditions: for Plant response rating, Pigweed: preemergence; for Pigweed plant response rating: postemergence, visual rating, scale 0 (no effect) to 100 (complete control)
How it was run: as §3

Surinam grass = test: Test B pre-/postemergence herbicide test; assay type: in vivo, Urochloa decumbens; conditions: for Plant response rating, Surinam Grass: preemergence; for Surinam Grass plant response rating: postemergence, visual rating, scale 0 (no effect) to 100 (complete control)
How it was run: as §3

rice [12] = test: Test B flooded paddy test; assay type: in vivo, Oryza sativa; conditions: 1000 g ai/ha, visual rating, scale 0 to 100 (0 no effect, 100 complete control), 13 to 15 days
How it was run: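 Treated at 2-leaf (paddy) or 1–4-leaf, 2–18 cm (postemergence); greenhouse 13–15 d; visual score vs control, 0 none to 100 complete control; dash = not tested.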

redroot pigweed = test: Test A pre-/postemergence herbicide test; assay type: in vivo, Amaranthus retroflexus
How it was run: as §1

blackgrass = test: Test B postemergence herbicide test; assay type: in vivo, Alopecurus myosuroides; conditions: postemergence, visual rating, scale 0 (no effect) to 100 (complete control)
How it was run: as §2

wild oat = test: Test B postemergence herbicide test; assay type: in vivo, Avena fatua; conditions: postemergence, visual rating, scale 0 (no effect) to 100 (complete control)
How it was run: as §5

large crabgrass [13] = test: Test B pre-/postemergence herbicide test; assay type: in vivo, Digitaria sanguinalis; conditions: for Plant response rating, Crabgrass, Large: preemergence; for Crabgrass, Large plant response rating: postemergence, visual rating, scale 0 (no effect) to 100 (complete control)
How it was run: as §3

large crabgrass [14] = test: Test A pre-/postemergence herbicide test; assay type: in vivo, Digitaria sanguinalis
How it was run: as §1

[15] = Postemergence, 500 g ai/ha, 0 to 100 scale, 0 no effect, 100 complete control
[16] = Postemergence, 2000 g ai/ha, 0 to 100 scale, 0 no effect, 100 complete control
[17] = Preemergence, 500 g ai/ha, visual rating, 0 to 100 scale (0 no effect, 100 complete control)
[18] = Preemergence, 2000 g ai/ha, visual rating, 0 to 100 scale (0 no effect, 100 complete control)
[19] = 500 g ai/ha, visual rating 0-100, 0 no effect, 100 complete control
[20] = 125 g ai/ha, 0 to 100 scale, 0 is no effect, 100 is complete control
[21] = preemergence, 500 g ai/ha, visual injury, 0 to 100 scale (0 no effect, 100 complete control)

For `CCn1nc(C(C)(C)C)cc1C(=O)Nc1nc(OC)cc(OC)n1` [Compound 166], the “Morningglory plant response rating” value (morningglory [1]; [15]) was 0, the “Plant response rating, Morningglory” value (morningglory [1]; [16]) was 10 and the “Morningglory plant response rating” value (morningglory [1]; [17]) was 0. For the same compound, the “Morningglory plant response rating” value (morningglory [1]; [18]) was 5, the “Barnyardgrass plant response rating” value (barnyardgrass [2]) was 0 and the “Plant response rating, Lambsquarters” value (lambsquarters; [19]) was 0. For the same compound, the “Lambsquarters plant response rating” value (lambsquarters; 125 g ai/ha) was 0, the “Lambsquarters plant response rating” value (lambsquarters; 500 g ai/ha) was 0 and the “Plant response rating, Lambsquarters” value (lambsquarters; [20]) was 0. The “Plant response rating, Cocklebur” value (cocklebur; [19]) was 0, the “Cocklebur plant response rating” value (cocklebur; 125 g ai/ha) was 0 and the “Cocklebur plant response rating” value (cocklebur; 500 g ai/ha) was 0. For the same compound, the “Plant response rating, Cocklebur” value (cocklebur; [20]) was 0, the “Plant response rating, Corn” value (corn; [19]) was 0 and the “Corn plant response rating” value (corn; 125 g ai/ha) was 0. The “Corn plant response rating” value (corn; 500 g ai/ha) was 0, the “Plant response rating, Corn” value (corn; [20]) was 0 and the “Wheat plant response rating” value (wheat) was 0. For the same compound, the “Velvetleaf plant response rating” value (velvetleaf [3]; [15]) was 20, the “Plant response rating, Velvetleaf” value (velvetleaf [3]; [16]) was 30 and the “Velvetleaf plant response rating” value (velvetleaf [3]; [18]) was 5. The “Velvetleaf plant response rating” value (velvetleaf [3]; [21]) was 0, the “Barnyardgrass plant response rating” value (barnyardgrass [4]; [15]) was 0 and the “Plant response rating, Barnyardgrass” value (barnyardgrass [4]; [16]) was 10. For the same compound, the “Barnyardgrass plant response rating” value (barnyardgrass [4]; [17]) was 0, the “Barnyardgrass plant response rating” value (barnyardgrass [4]; [18]) was 10 and the “Plant response rating, Morningglory” value (morningglory [5]; [19]) was 0. For the same compound, the “Morningglory plant response rating” value (morningglory [5]; 125 g ai/ha) was 0, the “Morningglory plant response rating” value (morningglory [5]; 500 g ai/ha) was 0 and the “Plant response rating, Morningglory” value (morningglory [5]; [20]) was 0. The “Plant response rating, Velvetleaf” value (velvetleaf [6]; [19]) was 0, the “Velvetleaf plant response rating” value (velvetleaf [6]; 125 g ai/ha) was 0 and the “Velvetleaf plant response rating” value (velvetleaf [6]; 500 g ai/ha) was 0. The “Plant response rating, Velvetleaf” value (velvetleaf [6]; [20]) was 0, the “Foxtail, Giant plant response rating” value (giant foxtail [7]; [15]) was 0 and the “Plant response rating, Foxtail, Giant” value (giant foxtail [7]; [16]) was 20. For the same compound, the “Foxtail, Giant plant response rating” value (giant foxtail [7]; [17]) was 0, the “Foxtail, Giant plant response rating” value (giant foxtail [7]; [18]) was 10 and the “Ducksalad plant response rating” value (ducksalad) was 0. For the same compound, the “Plant response rating, Foxtail, Giant” value (giant foxtail [8]; [19]) was 0, the “Foxtail, Giant plant response rating” value (giant foxtail [8]; 125 g ai/ha) was 0 and the “Foxtail, Giant plant response rating” value (giant foxtail [8]; 500 g ai/ha) was 0. The “Plant response rating, Foxtail, Giant” value (giant foxtail [8]; [20]) was 0, the “Plant response rating, Barnyardgrass” value (barnyardgrass [9]; [19]) was 0 and the “Barnyardgrass plant response rating” value (barnyardgrass [9]; 125 g ai/ha) was 0. For the same compound, the “Barnyardgrass plant response rating” value (barnyardgrass [9]; 500 g ai/ha) was 0, the “Plant response rating, Barnyardgrass” value (barnyardgrass [9]; [20]) was 0 and the “Plant response rating, Rice” value (rice [10]; [19]) was 0. The “Plant response rating, Rice” value (rice [10]; [20]) was 0, the “Sedge, Umbrella plant response rating” value [11] was 30 and the “Plant response rating, Pigweed” value (pigweed; [19]) was 0. The “Pigweed plant response rating” value (pigweed; 125 g ai/ha) was 0, the “Pigweed plant response rating” value (pigweed; 500 g ai/ha) was 0 and the “Plant response rating, Pigweed” value (pigweed; [20]) was 0. The “Plant response rating, Surinam Grass” value (Surinam grass; [19]) was 0, the “Surinam Grass plant response rating” value (Surinam grass; 125 g ai/ha) was 0 and the “Surinam Grass plant response rating” value (Surinam grass; 500 g ai/ha) was 0. The “Plant response rating, Surinam Grass” value (Surinam grass; [20]) was 0, the “Rice plant response rating” value (rice [12]) was 0 and the “Pigweed plant response rating” value (redroot pigweed; [15]) was 20. The “Plant response rating, Pigweed” value (redroot pigweed; [16]) was 25, the “Pigweed plant response rating” value (redroot pigweed; [18]) was 10 and the “Pigweed plant response rating” value (redroot pigweed; [21]) was 0. The “Blackgrass plant response rating” value (blackgrass; 125 g ai/ha) was 0, the “Blackgrass plant response rating” value (blackgrass; 500 g ai/ha) was 0 and the “Oat, Wild plant response rating” value (wild oat; 125 g ai/ha) was 0. For the same compound, the “Oat, Wild plant response rating” value (wild oat; 500 g ai/ha) was 0, the “Plant response rating, Crabgrass, Large” value (large crabgrass [13]; [19]) was 0 and the “Crabgrass, Large plant response rating” value (large crabgrass [13]; 125 g ai/ha) was 0. For the same compound, the “Crabgrass, Large plant response rating” value (large crabgrass [13]; 500 g ai/ha) was 0, the “Plant response rating, Crabgrass, Large” value (large crabgrass [13]; [20]) was 0 and the “Crabgrass, Large plant response rating” value (large crabgrass [14]; [15]) was 0. The “Plant response rating, Crabgrass, Large” value (large crabgrass [14]; [16]) was 0, the “Crabgrass, Large plant response rating” value (large crabgrass [14]; [17]) was 0 and the “Crabgrass, Large plant response rating” value (large crabgrass [14]; [18]) was 30.
